{"source": "paper PMC3506384", "about": "(Cancer chemotherapy and pharmacology, 2011)", "key": {"[1]": {"experiment": "Serum anticonvulsant levels in group A patients", "format": "in vivo, human", "settings": "all 3 patients in group A; at PK sampling on days 2 and 9 of cycle 1"}, "[2]": {"settings": "cited from earlier work"}, "Phase I dose escalation": {"experiment": "Phase I dose escalation", "format": "in vivo, human"}, "[3]": {"settings": "cited from earlier work", "remark": "listed apart in the source"}, "[4]": {"experiment": "Bortezomib plasma pharmacokinetics, non-compartmental, LC-MS/MS"}, "[5]": {"settings": "co-administration of ketoconazole; cited from earlier work"}, "clinical": {"experiment": "clinical", "settings": "human, plasma; for half-life: intravenous"}, "[6]": {"settings": "patients not taking concomitant HEIAs (group B)"}, "[7]": {"settings": "Day 2, bortezomib 1.0 mg/m^2, group A (taking HEIAs), N 1"}, "[8]": {"settings": "Day 2, bortezomib 1.0 mg/m^2, group B (not taking HEIAs), N 13, median (range)"}, "[9]": {"settings": "Day 2, bortezomib 1.3 mg/m^2, group A (taking HEIAs), N 1"}, "[10]": {"settings": "Day 2, bortezomib 1.3 mg/m^2, group B (not taking HEIAs), N 6, median (range)"}, "[11]": {"settings": "Day 2, bortezomib 1.5 mg/m^2, group A (taking HEIAs), N 1"}, "[12]": {"settings": "Day 2, bortezomib 1.5 mg/m^2, group B (not taking HEIAs), N 1"}, "[13]": {"settings": "Day 9, bortezomib 1.0 mg/m^2, group A (taking HEIAs), N 1"}, "[14]": {"settings": "Day 9, bortezomib 1.0 mg/m^2, group B (not taking HEIAs), N 13, median (range)"}, "[15]": {"settings": "Day 9, bortezomib 1.3 mg/m^2, group A (taking HEIAs), N 1"}, "[16]": {"settings": "Day 9, bortezomib 1.3 mg/m^2, group B (not taking HEIAs), N 6, median (range)"}}, "note": "Read-outs that look alike come from different tables or passages of the source.", "data": [{"smiles": "O=C1NC(=O)C(c2ccccc2)(c2ccccc2)N1", "note": "[phenytoin]", "values": [{"measurement": "serum phenytoin levels", "setting": "[1]", "result": "within the therapeutic range"}]}, {"smiles": "Cn1nnc2c(C(N)=O)ncn2c1=O", "note": "[temozolomide]", "values": [{"measurement": "individual MTD (single agent)", "setting": "[2]; temozolomide alone", "result": 200, "unit": "mg/m^2"}, {"measurement": "recommended dose for phase 2 studies, temozolomide in the combination", "setting": "Phase I dose escalation; patients not taking HEIAs, days 1–5, every 28 days", "result": 200, "unit": "mg/m^2"}, {"measurement": "MTD of temozolomide in combination with bortezomib", "setting": "Phase I dose escalation; patients not taking HEIAs, days 1–5 of a 28-day cycle", "result": 200, "unit": "mg/m^2"}, {"measurement": "MTD of temozolomide in combination with bortezomib", "setting": "Phase I dose escalation; [6]", "result": 200, "unit": "mg/m^2/dose"}]}, {"smiles": "CC(C)C[C@H](NC(=O)[C@H](Cc1ccccc1)NC(=O)c1cnccn1)B(O)O", "note": "[bortezomib]", "values": [{"measurement": "MTD of single agent bortezomib", "setting": "[3]; recurrent malignant glioma patients not taking HEIAs", "result": 1.7, "unit": "mg/m^2"}, {"measurement": "MTD of single agent bortezomib", "setting": "[3]; recurrent malignant glioma patients receiving concurrent HEIAs", "result": 2.5, "unit": "mg/m^2"}, {"measurement": "AUC 0–∞", "setting": "[4]; [7]", "result": 20.8, "unit": "µg·h/L"}, {"measurement": "CLsys", "setting": "[4]; [7]", "result": 115.7, "unit": "L/h"}, {"measurement": "AUC 0–∞", "setting": "[4]; [8]", "result": "33.6 (21–106) ug/l × h"}, {"measurement": "CLsys", "setting": "[4]; [8]", "result": "46.6 (17–90) l/h"}, {"measurement": "Elimination T1/2", "setting": "[4]; [8]", "result": "12.7 (2–21) h"}, {"measurement": "AUC 0–∞", "setting": "[4]; [9]", "result": 40.4, "unit": "µg·h/L"}, {"measurement": "CLsys", "setting": "[4]; [9]", "result": 64.4, "unit": "L/h"}, {"measurement": "AUC 0–∞", "setting": "[4]; [10]", "result": "56.1 (34–97) ug/l × h"}, {"measurement": "CLsys", "setting": "[4]; [10]", "result": "44.0 (21–81) l/h"}, {"measurement": "Elimination T1/2", "setting": "[4]; [10]", "result": "18.8 (13–26) h"}, {"measurement": "AUC 0–∞", "setting": "[4]; [11]", "result": 30.6, "unit": "µg·h/L"}, {"measurement": "CLsys", "setting": "[4]; [11]", "result": 94.8, "unit": "L/h"}, {"measurement": "AUC 0–∞", "setting": "[4]; [12]", "result": 137.4, "unit": "µg·h/L"}, {"measurement": "CLsys", "setting": "[4]; [12]", "result": 16.0, "unit": "L/h"}, {"measurement": "AUC 0–∞", "setting": "[4]; [13]", "result": 30.7, "unit": "µg·h/L"}, {"measurement": "CLsys", "setting": "[4]; [13]", "result": 78.1, "unit": "L/h"}, {"measurement": "Elimination T1/2", "setting": "[4]; [13]", "result": 15.5, "unit": "h"}, {"measurement": "AUC 0–∞", "setting": "[4]; [14]", "result": "86.8 (32–216) ug/l × h"}, {"measurement": "CLsys", "setting": "[4]; [14]", "result": "20.7 (9–59) l/h"}, {"measurement": "AUC 0–∞", "setting": "[4]; [15]", "result": 72.4, "unit": "µg·h/L"}, {"measurement": "CLsys", "setting": "[4]; [15]", "result": 35.9, "unit": "L/h"}, {"measurement": "Elimination T1/2", "setting": "[4]; [15]", "result": 11.1, "unit": "h"}, {"measurement": "AUC 0–∞", "setting": "[4]; [16]", "result": "120.0 (78–206) ug/l × h"}, {"measurement": "CLsys", "setting": "[4]; [16]", "result": "21.2 (10–33) l/h"}, {"measurement": "Elimination T1/2", "setting": "[4]; [16]", "result": "18.9 (12–41) h"}, {"measurement": "CLsys on day 9 as percent of the CLsys on day 2", "setting": "[4]; median percent change, P < 0.01, paired Wilcoxon test, all patients with PK", "result": 51, "unit": "%"}, {"measurement": "rapid initial decline of plasma concentration", "setting": "[4]; within the first few hours after the dose, both groups", "result": 100, "unit": "fold"}, {"measurement": "individual MTD (single agent)", "setting": "[2]; bortezomib alone", "result": 1.6, "unit": "mg/m^2"}, {"measurement": "mean increase in systemic exposure of bortezomib with ketoconazole", "setting": "[5]", "result": 35, "unit": "%"}, {"measurement": "half-life", "setting": "clinical; 1 mg/m2", "result": 11.3, "unit": "h"}, {"measurement": "half-life", "setting": "clinical; 1.3 mg/m2", "result": 12.4, "unit": "h"}, {"measurement": "half-life", "setting": "clinical; 1.5 mg/m2", "result": 6.4, "unit": "h"}, {"measurement": "Cmax", "setting": "clinical; iv, 1 mg/m^2", "result": 65.5, "unit": "ng/mL"}, {"measurement": "MTD of bortezomib in combination with temozolomide", "setting": "Phase I dose escalation; patients not taking HEIAs, days 2, 5, 9, 12 of a 28-day cycle", "result": 1.3, "unit": "mg/m^2"}, {"measurement": "recommended dose for phase 2 studies, bortezomib in the combination", "setting": "Phase I dose escalation; patients not taking HEIAs, days 2, 5, 9 and 12, every 28 days", "result": 1.3, "unit": "mg/m^2"}, {"measurement": "MTD of bortezomib in combination with temozolomide", "setting": "Phase I dose escalation; [6]", "result": 1.3, "unit": "mg/m^2/dose"}]}]}
